According to PMC8194517, “B^0AT1 Amino Acid Transporter Complexed With SARS-CoV-2 Receptor ACE2 Forms a Heterodimer Functional Unit: In Situ Conformation Using Radiation Inactivation Analysis” (Function, 2021):

System: T1, B^0AT1 ([ACE2:B^0AT1] heterodimer functional unit)
T1 construct: gene SLC6A19; native, ileal apical brush border membrane vesicles, lyophilized and reconstituted; full-length; with Angiotensin-converting enzyme 2
Assay: radiotracer uptake into brush border membrane vesicles, […] s initial rate
Format: biochemical, Oryctolagus cuniculus
Settings: labelled compound; Na+-dependent zero-trans influx, 100 mM NaSCN, pH 7.5, 22°C; apparent Km, major component after subtracting diffusion and a minor 'Other' component

C[C@H](N)C(=O)O [L-alanine]
Km: 6.9 ± 0.8 mM
